From patent US6737383B1, “Herbicidal oxadiazolidines” (priority 1999, dated 2004)

How the values were obtained:
corn = assay: Test B pre/postemergence corn; type: in vivo, Zea mays
Procedure, shortened: (§1)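 Test chemicals in a non-phytotoxic solvent mixture with surfactant were sprayed preemergence onto planted seeds and postemergence onto plants 2 to 18 cm tall (1- to 4-leaf stage). After twelve to sixteen days in a greenhouse, injury was visually rated against untreated controls from 0 (no effect) to 10 (complete control).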

sugar beet = assay: Test B pre/postemergence sugar beet; type: in vivo, Beta vulgaris
Procedure, shortened: as §1

giant foxtail = assay: Test B pre/postemergence giant foxtail; type: in vivo, Setaria faberii
Procedure, shortened: as §1

soybean = assay: Test B pre/postemergence soybean; type: in vivo, Glycine max
Procedure, shortened: as §1

bamyardgrass = assay: Test B flood test barnyardgrass; type: in vivo, Echinochloa crus-galli
Procedure, shortened: (§2)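 Each value is a visual injury score relative to controls, with 10 meaning complete control and 0 no effect. Evaluation took place twelve to sixteen days after the 2-leaf-stage plants were treated and kept in the greenhouse.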

crabgrass = assay: Test B pre/postemergence crabgrass; type: in vivo, Digitaria sanguinalis
Procedure, shortened: as §1

surinam grass = assay: Test B pre/postemergence surinam grass; type: in vivo, Brachiaria decumbens
Procedure, shortened: as §1

wild oat = assay: Test B pre/postemergence wild oat; type: in vivo, Avena fatua
Procedure, shortened: as §1

rape = assay: Test B pre/postemergence rape; type: in vivo, Brassica napus
Procedure, shortened: as §1

pigweed = assay: Test B pre/postemergence pigweed; type: in vivo, Amaranthus retroflexus
Procedure, shortened: as §1

purple nutsedge = assay: Test B pre/postemergence purple nutsedge; type: in vivo, Cyperus rotundus
Procedure, shortened: as §1

duck salad = assay: Test B flood test duck salad; type: in vivo, Heteranthera limosa
Procedure, shortened: as §2

wheat = assay: Test B pre/postemergence wheat; type: in vivo, Triticum aestivum
Procedure, shortened: as §1

velvetleaf = assay: Test B pre/postemergence velvetleaf; type: in vivo, Abutilon theophrasti
Procedure, shortened: as §1

rice = assay: Test B flood test rice; type: in vivo, Oryza sativa
Procedure, shortened: as §2

bedstraw = assay: Test B pre/postemergence bedstraw; type: in vivo, Galium aparine; details: Postemergence
Procedure, shortened: as §1

morningglory = assay: Test B pre/postemergence morningglory; type: in vivo, Ipomoea hederacea
Procedure, shortened: as §1

blackgrass = assay: Test B pre/postemergence blackgrass; type: in vivo, Alopecurus myosuroides
Procedure, shortened: as §1

cocklebur = assay: Test B pre/postemergence cocklebur; type: in vivo, Xanthium strumarium
Procedure, shortened: as §1

smallflower flatsedge = assay: Test B flood test smallflower flatsedge; type: in vivo, Cyperus difformis
Procedure, shortened: as §2

[1] = Postemergence, Rate 62 g/ha, scale 0 to 10, 0 is no effect, 10 is complete control
[2] = Postemergence, Rate 125 g/ha, scale of 0 to 10 where 0 is no effect and 10 is complete control
[3] = Postemergence, Rate 250 g/ha, scale of 0 to 10, 0 is no effect, 10 is complete control
[4] = Postemergence, Rate 500 g/ha, scale of 0 to 10 where 0 is no effect and 10 is complete control
[5] = Preemergence, Rate 62 g/ha, scale 0 to 10 (0 no effect, 10 complete control)
[6] = Preemergence, Rate 125 g/ha, scale of 0 to 10 where 0 is no effect and 10 is complete control
[7] = Preemergence, Rate 500 g/ha, scale of 0 to 10 where 0 is no effect and 10 is complete control
[8] = Rate 62 g/ha, flood test species, Pre-emergence, visual evaluation after twelve to sixteen days
[9] = Rate 125 g/ha, under heading Pre-emergence, flood test species, visual evaluation after twelve to sixteen days
[10] = Rate 250 g/ha, Pre-emergence (flood test species), scale 0 to 10, 0 is no effect, 10 is complete control
[11] = Rate 500 g/ha, Pre-emergence section of Table B, 0 to 10 scale (0 no effect, 10 complete control)

For `C=C(Cn1c(=O)on(C(=O)N(c2ccccc2)C(C)C)c1=O)c1ccc(F)cc1` [Compound 606], the “Plant response rating, Corn” value (corn; [1]) was 0, the “Plant response rating, Corn” value (corn; [2]) was 0 and the “Corn plant response rating” value (corn; [3]) was 0. The “Plant response rating, Corn” value (corn; [4]) was 0, the “Corn plant response rating” value (corn; [5]) was 0 and the “Corn plant response rating” value (corn; [6]) was 0. The “Corn plant response rating (0 to 10 scale)” value (corn; Preemergence, Rate 250 g/ha) was 0, the “Plant response rating, Corn” value (corn; [7]) was 0 and the “Plant response rating, Sugarbeets” value (sugar beet; [1]) was 0. For the same compound, the “Plant response rating, Sugarbeets” value (sugar beet; [2]) was 0, the “Sugarbeets plant response rating” value (sugar beet; [3]) was 0 and the “Plant response rating, Sugarbeets” value (sugar beet; [4]) was 0. The “Sugarbeets plant response rating” value (sugar beet; [5]) was 0, the “Sugarbeets plant response rating” value (sugar beet; [6]) was 0 and the “Plant response rating, Sugarbeets” value (sugar beet; [7]) was 0. The “Plant response rating, Giant foxtail” value (giant foxtail; [1]) was 0, the “Plant response rating, Giant foxtail” value (giant foxtail; [2]) was 0 and the “Giant foxtail plant response rating” value (giant foxtail; [3]) was 0. For the same compound, the “Plant response rating, Giant foxtail” value (giant foxtail; [4]) was 3, the “Giant foxtail plant response rating” value (giant foxtail; [5]) was 0 and the “Giant foxtail plant response rating” value (giant foxtail; [6]) was 6. The “Plant response rating, Giant foxtail” value (giant foxtail; [7]) was 9, the “Plant response rating, Soybean” value (soybean; [1]) was 1 and the “Plant response rating, Soybean” value (soybean; [2]) was 2. For the same compound, the “Soybean plant response rating” value (soybean; [3]) was 2, the “Soybean plant response rating” value (soybean; [5]) was 0 and the “Soybean plant response rating” value (soybean; [6]) was 0. For the same compound, the “Plant response rating, Soybean” value (soybean; [7]) was 0, the “Plant response rating, Barnyardgrass (0 to 10 scale, 0 is no effect, 10 is complete control)” value (bamyardgrass; [8]) was 0 and the “Barnyardgrass plant response rating (0 to 10 scale, 0 is no effect, 10 is complete control)” value (bamyardgrass; [9]) was 0. The “Barnyardgrass plant response rating” value (bamyardgrass; [10]) was 0, the “Barnyardgrass plant response rating” value (bamyardgrass; [11]) was 0 and the “Plant response rating, Crabgrass” value (crabgrass; [1]) was 0. The “Plant response rating, Crabgrass” value (crabgrass; [2]) was 3, the “Crabgrass plant response rating” value (crabgrass; [3]) was 3 and the “Crabgrass plant response rating” value (crabgrass; [5]) was 0. For the same compound, the “Plant response rating, Crabgrass” value (crabgrass; [7]) was 8, the “Plant response rating, B. signalgrass” value (surinam grass; [1]) was 0 and the “Plant response rating, B. signalgrass” value (surinam grass; [2]) was 0. The “B. signalgrass plant response rating” value (surinam grass; [3]) was 0, the “Plant response rating, B. signalgrass” value (surinam grass; [4]) was 0 and the “B. signalgrass plant response rating” value (surinam grass; [5]) was 0. For the same compound, the “B. signalgrass plant response rating” value (surinam grass; [6]) was 0, the “B. signalgrass plant response rating (0 to 10 scale, 0 is no effect, 10 is complete control)” value (surinam grass; Preemergence, Rate 250 g/ha) was 0 and the “B. signalgrass plant response rating” value (surinam grass; [7]) was 0. The “Plant response rating, Wild oats” value (wild oat; [1]) was 0, the “Plant response rating, Wild oats” value (wild oat; [2]) was 0 and the “Wild oats plant response rating” value (wild oat; [3]) was 0. For the same compound, the “Plant response rating, Wild oats” value (wild oat; [4]) was 0, the “Wild oats plant response rating” value (wild oat; [5]) was 0 and the “Wild oats plant response rating” value (wild oat; [6]) was 0. The “Plant response rating, Wild oats” value (wild oat; [7]) was 3, the “Plant response rating, Rape” value (rape; [2]) was 2 and the “Rape plant response rating” value (rape; [3]) was 3. For the same compound, the “Plant response rating, Rape” value (rape; [4]) was 4, the “Rape plant response rating” value (rape; [5]) was 0 and the “Rape plant response rating” value (rape; [6]) was 0. For the same compound, the “Plant response rating, Rape” value (rape; [7]) was 0, the “Plant response rating, Redroot pigweed” value (pigweed; [1]) was 0 and the “Plant response rating, Redroot pigweed” value (pigweed; [2]) was 0. The “Redroot pigweed plant response rating” value (pigweed; [3]) was 1, the “Plant response rating, Redroot pigweed” value (pigweed; [4]) was 2 and the “Redroot pigweed plant response rating” value (pigweed; [5]) was 0. The “Redroot pigweed plant response rating” value (pigweed; [6]) was 0, the “Plant response rating, Redroot pigweed” value (pigweed; [7]) was 0 and the “Plant response rating, Nutsedge” value (purple nutsedge; [1]) was 0. The “Plant response rating, Nutsedge” value (purple nutsedge; [2]) was 0, the “Plant response rating, Nutsedge” value (purple nutsedge; [4]) was 0 and the “Nutsedge plant response rating” value (purple nutsedge; [5]) was 0. The “Nutsedge plant response rating” value (purple nutsedge; [6]) was 0, the “Plant response rating, Nutsedge” value (purple nutsedge; [7]) was 0 and the “Plant response rating, Ducksalad (0 to 10 scale, 0 is no effect, 10 is complete control)” value (duck salad; [8]) was 0. The “Ducksalad plant response rating (0 to 10 scale, 0 is no effect, 10 is complete control)” value (duck salad; [9]) was 0, the “Ducksalad plant response rating” value (duck salad; [10]) was 0 and the “Ducksalad plant response rating” value (duck salad; [11]) was 0. The “Plant response rating, Wheat” value (wheat; [1]) was 0, the “Plant response rating, Wheat” value (wheat; [2]) was 0 and the “Wheat plant response rating” value (wheat; [3]) was 0. The “Plant response rating, Wheat” value (wheat; [4]) was 0, the “Wheat plant response rating” value (wheat; [5]) was 0 and the “Wheat plant response rating” value (wheat; [6]) was 0. For the same compound, the “Plant response rating, Wheat” value (wheat; [7]) was 0, the “Plant response rating, Velvetleaf” value (velvetleaf; [1]) was 0 and the “Plant response rating, Velvetleaf” value (velvetleaf; [2]) was 0. The “Velvetleaf plant response rating” value (velvetleaf; [3]) was 0, the “Plant response rating, Velvetleaf” value (velvetleaf; [4]) was 3 and the “Velvetleaf plant response rating” value (velvetleaf; [5]) was 0. For the same compound, the “Velvetleaf plant response rating” value (velvetleaf; [6]) was 0, the “Plant response rating, Velvetleaf” value (velvetleaf; [7]) was 0 and the “Plant response rating, Rice (0 to 10 scale, 0 is no effect, 10 is complete control)” value (rice; [8]) was 0. The “Rice plant response rating (0 to 10 scale, 0 is no effect, 10 is complete control)” value (rice; [9]) was 0, the “Rice plant response rating” value (rice; [10]) was 0 and the “Rice plant response rating” value (rice; [11]) was 0. The “Plant response rating, Bedstraw” value (bedstraw; Rate 62 g/ha, scale 0 to 10, 0 is no effect, 10 is complete control) was 0, the “Bedstraw plant response rating” value (bedstraw; Rate 250 g/ha, scale of 0 to 10, 0 is no effect, 10 is complete control) was 0 and the “Plant response rating, Bedstraw” value (bedstraw; Rate 500 g/ha, scale of 0 to 10 where 0 is no effect and 10 is complete control) was 0. The “Plant response rating, Morningglory” value (morningglory; [1]) was 6, the “Plant response rating, Morningglory” value (morningglory; [2]) was 10 and the “Morningglory plant response rating” value (morningglory; [3]) was 10. For the same compound, the “Morningglory plant response rating” value (morningglory; [5]) was 0, the “Morningglory plant response rating” value (morningglory; [6]) was 0 and the “Plant response rating, Morningglory” value (morningglory; [7]) was 0. The “Plant response rating, Blackgrass” value (blackgrass; [1]) was 0, the “Plant response rating, Blackgrass” value (blackgrass; [2]) was 0 and the “Blackgrass plant response rating” value (blackgrass; [3]) was 0. For the same compound, the “Plant response rating, Blackgrass” value (blackgrass; [4]) was 1, the “Blackgrass plant response rating” value (blackgrass; [5]) was 0 and the “Blackgrass plant response rating” value (blackgrass; [6]) was 0. The “Blackgrass plant response rating (0 to 10 scale)” value (blackgrass; Preemergence, Rate 250 g/ha) was 0, the “Blackgrass plant response rating” value (blackgrass; [7]) was 3 and the “Plant response rating, Cocklebur” value (cocklebur; [1]) was 0. The “Plant response rating, Cocklebur” value (cocklebur; [2]) was 0, the “Cocklebur plant response rating” value (cocklebur; [3]) was 0 and the “Plant response rating, Cocklebur” value (cocklebur; [4]) was 0. For the same compound, the “Cocklebur plant response rating” value (cocklebur; [5]) was 0, the “Cocklebur plant response rating” value (cocklebur; [6]) was 0 and the “Cocklebur plant response rating (0 to 10 scale)” value (cocklebur; Preemergence, Rate 250 g/ha) was 0. The “Plant response rating, Cocklebur” value (cocklebur; [7]) was 0, the “Plant response rating, S. Flatsedge (0 to 10 scale, 0 is no effect, 10 is complete control)” value (smallflower flatsedge; [8]) was 0 and the “S. Flatsedge plant response rating (0 to 10 scale, 0 is no effect, 10 is complete control)” value (smallflower flatsedge; [9]) was 0. The “S. Flatsedge plant response rating” value (smallflower flatsedge; [10]) was 0 and the “S. Flatsedge plant response rating” value (smallflower flatsedge; [11]) was 0.
